Results from patent publication US11292788B2, “IL-17 and IFN-gamma inhibition for the treatment of autoimmune diseases and chronic inflammation” (Immunic AG, priority 2017, dated 2022).

Assays:
Format in all cases: cell-based
[1] = tested on: IL-17F; assay: Cytokine assay: IL-17F production by human PBMC stimulated with PHA; conditions: Homo sapiens, PBMC, IC50 class, read-out: IL-17F Inhib.
Procedure: (§1) Cytokine Assay: Analysis of Proliferation of and Cytokine Production by Human PBMC Stimulated with PHA
(§2) Peripheral blood mononuclear cells (PBMC) from healthy human donors were purified using Accuspin™ System-Histopaque-1077 (Sigma) according to the protocol recommended by the manufacturer. Purified PBMC were then washed twice with phosphate-buffered saline (PBS) and resuspended in RPMI1640 culture medium supplemented with 10% dialyzed heat inactivated fetal calf serum, 1.5 mM L-glutamine, 100 U penicillin/ml, and […] (all from PAN Biotech, Aidenbach, Germany). For stimulation, PBMC were seeded at 1×10^5 cells/well, activated with 2 μg/ml phytohaemagglutinin (PHA, Sigma) and incubated with the test compounds for 48 hours. IL-17A, IL-17F and INF-γ were then determined in the culture supernatant using a Luminex BioPlex system, following the manufacturer's instructions (BioRad, Munich, Germany). For screening, compounds were used at 10, 1, 0.1 and 0.01 μM. To determine the IC50, compounds were titrated semilogarithmically.
(§3) Cytokines were determined in the aforementioned culture supernatant using the following methods: IL-17A was measured using the human homodimer IL-17A ELISA Ready Set Go Kit from eBioscience (Frankfurt, Germany); IL-17F using the human IL-17F ELI-Pair from Hölzel DiagnosticaGmBH (Köln, Germany); and IFN-γ using the OptEIA human IFN-g ELISA from BD Bioscience (Heidelberg, Germany), all following the manufacturer's instructions.

[2] = tested on: IL-17A; assay: Cytokine assay: IL-17A production by human PBMC stimulated with PHA; conditions: Homo sapiens, PBMC, IC50 class, read-out: IL-17A Inhib.
Procedure: as §1, §2, §3

[3] = tested on: INF-γ; assay: Cytokine assay: INF-γ production by human PBMC stimulated with PHA; conditions: Homo sapiens, PBMC, IC50 class, read-out: IFN-gamma Inhib.
Procedure: as §1, §2, §3

| SMILES | IC50 [1] [nM] | IC50 [2] [nM] | IC50 [3] [nM] |
| --- | --- | --- | --- |
| COc1ccccc1-c1noc(-c2cnn(CC(C)(C)O)c2C(F)(F)F)c1-c1ncccn1 [Example 114, 1-{4-[3-(2-methoxyphenyl)-4-(pyrimidin-2-yl)-1,2-oxazol-5-yl]-5-(trifluoromethyl)-1H-pyrazol-1-yl}-2-methylpropan-2-ol] | ≥ 5000 | ≥ 5000 | 500 to 5000 |
| COc1ccccc1-c1noc(-c2cnn(C[C@@H](C)O)c2C(F)(F)F)c1-c1ccncn1 [Example 115, (2R)-1-{4-[3-(2-methoxyphenyl)-4-(pyrimidin-4-yl)-1,2-oxazol-5-yl]-5-(trifluoromethyl)-1H-pyrazol-1-yl}propan-2-ol] | 500 to 5000 | 500 to 5000 | 50 to 500 |
| COc1ccccc1-c1noc(-c2cnn(CC(C)(C)O)c2C(F)(F)F)c1-c1ccncn1 [Example 116, 1-{4-[3-(2-methoxyphenyl)-4-(pyrimidin-4-yl)-1,2-oxazol-5-yl]-5-(trifluoromethyl)-1H-pyrazol-1-yl}-2-methylpropan-2-ol] | ≥ 5000 | ≥ 5000 | 500 to 5000 |
| COc1cccc(-c2noc(-c3cnn(C[C@@H](C)O)c3C(F)(F)F)c2-c2ncccn2)c1Cl [Example 117, (2R)-1-{4-[3-(2-chloro-3-methoxyphenyl)-4-(pyrimidin-2-yl)-1,2-oxazol-5-yl]-5-(trifluoromethyl)-1H-pyrazol-1-yl}propan-2-ol] | 500 to 5000 | 500 to 5000 | 50 to 500 |
| COc1cccc(-c2noc(-c3cnn(C[C@@H](C)O)c3C(F)(F)F)c2-c2ccncn2)c1Cl [Example 119, (2R)-1-{4-[3-(2-chloro-3-methoxyphenyl)-4-(pyrimidin-4-yl)-1,2-oxazol-5-yl]-5-(trifluoromethyl)-1H-pyrazol-1-yl}propan-2-ol] | 500 to 5000 | 500 to 5000 | 50 to 500 |
| COc1cccc(-c2noc(-c3cnn(CC(C)(C)O)c3C(F)(F)F)c2-c2ccncn2)c1Cl [Example 120, 1-{4-[3-(2-chloro-3-methoxyphenyl)-4-(pyrimidin-4-yl)-1,2-oxazol-5-yl]-5-(trifluoromethyl)-1H-pyrazol-1-yl}-2-methylpropan-2-ol] | ≥ 5000 | 500 to 5000 | 500 to 5000 |
| CC(C)(O)CCn1ncc(-c2onc(-c3ccccc3Cl)c2-c2ncccn2)c1C(F)(F)F [Example 122, 4-{4-[3-(2-chlorophenyl)-4-(pyrimidin-2-yl)-1,2-oxazol-5-yl]-5-(trifluoromethyl)-1H-pyrazol-1-yl}-2-methylbutan-2-ol] | < 50 | < 50 | < 50 |
| CC(C)(O)CCn1ncc(-c2onc(-c3cccc(O)c3Cl)c2-c2ncccn2)c1C(F)(F)F [Example 129, 2-chloro-3-{5-[1-(3-hydroxy-3-methylbutyl)-5-(trifluoromethyl)-1H-pyrazol-4-yl]-4-(pyrimidin-2-yl)-1,2-oxazol-3-yl}phenol] | 50 to 500 | 50 to 500 | 500 to 5000 |
| CN1CCN(CCOc2cccc(-c3noc(-c4cnn(CCC(C)(C)O)c4C(F)(F)F)c3-c3ncccn3)c2Cl)CC1 [Example 136, 4-[4-(3-{2-chloro-3-[2-(4-methylpiperazin-1-yl)ethoxy]phenyl}-4-(pyrimidin-2-yl)-1,2-oxazol-5-yl)-5-(trifluoromethyl)-1H-pyrazol-1-yl]-2-methylbutan-2-ol] | 50 to 500 | 50 to 500 | 50 to 500 |
| CN(C)CCCOc1cccc(-c2noc(-c3cnn(CCC(C)(C)O)c3C(F)(F)F)c2-c2ncccn2)c1Cl [Example 140, 4-[4-(3-{2-chloro-3-[3-(dimethylamino)propoxy]phenyl}-4-(pyrimidin-2-yl)-1,2-oxazol-5-yl)-5-(trifluoromethyl)-1H-pyrazol-1-yl]-2-methylbutan-2-ol] | 50 to 500 | 50 to 500 | 50 to 500 |
| CC(C)(O)CCn1ncc(-c2onc(-c3cccc(OCCCN4CCCC4)c3Cl)c2-c2ncccn2)c1C(F)(F)F [Example 142, 4-[4-(3-{2-chloro-3-[3-(pyrrolidin-1-yl)propoxy]phenyl}-4-(pyrimidin-2-yl)-1,2-oxazol-5-yl)-5-(trifluoromethyl)-1H-pyrazol-1-yl]-2-methylbutan-2-ol] | 50 to 500 | 50 to 500 | 50 to 500 |
| CCN(CC)CCCOc1cccc(-c2noc(-c3cnn(CCC(C)(C)O)c3C(F)(F)F)c2-c2ncccn2)c1Cl [Example 143, 4-[4-(3-{2-chloro-3-[3-(diethylamino)propoxy]phenyl}-4-(pyrimidin-2-yl)-1,2-oxazol-5-yl)-5-(trifluoromethyl)-1H-pyrazol-1-yl]-2-methylbutan-2-ol] | < 50 | < 50 | < 50 |
| COC(=O)c1c(-c2cccc(OCCN(C)C)c2Cl)noc1-c1cnn(C[C@H](C)O)c1C(F)(F)F [Example 149, methyl 3-{2-chloro-3-[2-(dimethylamino)ethoxy]phenyl}-5-{1-[(2S)-2-hydroxypropyl]-5-(trifluoromethyl)-1H-pyrazol-4-yl}-1,2-oxazole-4-carboxylate] | 500 to 5000 | 50 to 500 | 50 to 500 |
| C[C@@H](O)Cn1ncc(-c2onc(-c3cccc(C(=O)N4CCOCC4)c3Cl)c2-c2ccncn2)c1C(F)(F)F [Example 154, (R)-(2-chloro-3-(5-(1-(2-hydroxypropyl)-5-(trifluoromethyl)-1H-pyrazol-4-yl)-4-(pyrimidin-4-yl)isoxazol-3-yl)phenyl) (morpholino)methanone] | ≥ 5000 | 500 to 5000 | 50 to 500 |
| C[C@@H](O)Cn1ncc(-c2onc(-c3cccc(C(=O)NC4CCC4)c3Cl)c2-c2ccncn2)c1C(F)(F)F [Example 155, (R)-2-chloro-N-cyclobutyl-3-(5-(1-(2-hydroxypropyl)-5-(trifluoromethyl)-1H-pyrazol-4-yl)-4-(pyrimidin-4-yl)isoxazol-3-yl)benzamide] | 50 to 500 | 50 to 500 | 50 to 500 |
| CCNC(=O)c1cccc(-c2noc(-c3cnn(C[C@@H](C)O)c3C(F)(F)F)c2-c2ccncn2)c1Cl [Example 156, (R)-2-chloro-N-ethyl-3-(5-(1-(2-hydroxypropyl)-5-(trifluoromethyl)-1H-pyrazol-4-yl)-4-(pyrimidin-4-yl)isoxazol-3-yl)benzamide] | ≥ 5000 | ≥ 5000 | 500 to 5000 |
| CC(C)NC(=O)c1cccc(-c2noc(-c3cnn(C[C@@H](C)O)c3C(F)(F)F)c2-c2ccncn2)c1Cl [Example 157, (R)-2-chloro-3-(5-(1-(2-hydroxypropyl)-5-(trifluoromethyl)-1H-pyrazol-4-yl)-4-(pyrimidin-4-yl)isoxazol-3-yl)-N-isopropylbenzamide] | 500 to 5000 | 500 to 5000 | 50 to 500 |
| C[C@@H](O)Cn1ncc(-c2onc(-c3cccc(C(=O)N4CCC4)c3Cl)c2-c2ccncn2)c1C(F)(F)F [Example 158, (R)-(azetidin-1-yl)(2-chloro-3-(5-(1-(2-hydroxypropyl)-5-(trifluoromethyl)-1H-pyrazol-4-yl)-4-(pyrimidin-4-yl)isoxazol-3-yl)phenyl)methanone] | 50 to 500 | 50 to 500 | 50 to 500 |
| C[C@@H](O)Cn1ncc(-c2onc(-c3cccc(C(=O)NC4CC4)c3Cl)c2-c2ccncn2)c1C(F)(F)F [Example 159, (R)-2-chloro-N-cyclopropyl-3-(5-(1-(2-hydroxypropyl)-5-(trifluoromethyl)-1H-pyrazol-4-yl)-4-(pyrimidin-4-yl)isoxazol-3-yl)benzamide] | 500 to 5000 | 500 to 5000 | 50 to 500 |
| COc1c(C(=O)NC2CC2)cccc1-c1noc(-c2cnn(C[C@@H](C)O)c2C(F)(F)F)c1-c1ccncn1 [Example 161, (R)—N-cyclopropyl-3-(5-(1-(2-hydroxypropyl)-5-(trifluoromethyl)-1H-pyrazol-4-yl)-4-(pyrimidin-4-yl)isoxazol-3-yl)-2-methoxybenzamide] | ≥ 5000 | ≥ 5000 | 500 to 5000 |
| COc1c(C(=O)NC(C)C)cccc1-c1noc(-c2cnn(C[C@@H](C)O)c2C(F)(F)F)c1-c1ccncn1 [Example 162, (R)-3-(5-(1-(2-hydroxypropyl)-5-(trifluoromethyl)-1H-pyrazol-4-yl)-4-(pyrimidin-4-yl)isoxazol-3-yl)-N-isopropyl-2-methoxybenzamide] | ≥ 5000 | 500 to 5000 | 50 to 500 |
| COc1c(C(=O)N2CCC2)cccc1-c1noc(-c2cnn(C[C@@H](C)O)c2C(F)(F)F)c1-c1ccncn1 [Example 163, (R)-(azetidin-1-yl)(3-(5-(1-(2-hydroxypropyl)-5-(trifluoromethyl)-1H-pyrazol-4-yl)-4-(pyrimidin-4-yl)isoxazol-3-yl)-2-methoxyphenyl)methanone] | ≥ 5000 | ≥ 5000 | 500 to 5000 |
